Measured values as given in patent publication US20080051387A1, “TETRAHYDROPYRIDO[3,4-D]PYRIMIDINES AND RELATED ANALOGUES” (priority 2006, published 2008).

molecular target: T1, chimeric human H3 receptor (Homo sapiens, UniProt Q9Y5N1); test: Chimeric human H3 receptor screening GTP binding assay (inhibition of histamine-stimulated GTP-gamma35S binding, Example 8); format: biochemical; settings: 1 h; assay described in Example 8; symbol "!" in column headed Ki; read-out: Ki ("!": percent inhibition of agonist-induced GTP-gammaS binding to H3)
T1 construct: rat Galpha-i2 (Gnai2, rat); made in house; host or cells: Sf9 insect cells (baculovirus); P2 membranes
Summary of the method: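 Compound tested at 4 μM against 1 μM histamine stimulation; 125 pM GTP-gamma35S binding measured by filtration and scintillation after 60 min at room temperature. Membranes from Sf9 cells expressing chimeric human H3 plus G-protein subunits, in Tris pH 7.4/NaCl/MgCl2/GDP buffer; values are % inhibition after nonspecific subtraction.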

T1 sequence (Q9Y5N1 with tags, fused parts or gaps): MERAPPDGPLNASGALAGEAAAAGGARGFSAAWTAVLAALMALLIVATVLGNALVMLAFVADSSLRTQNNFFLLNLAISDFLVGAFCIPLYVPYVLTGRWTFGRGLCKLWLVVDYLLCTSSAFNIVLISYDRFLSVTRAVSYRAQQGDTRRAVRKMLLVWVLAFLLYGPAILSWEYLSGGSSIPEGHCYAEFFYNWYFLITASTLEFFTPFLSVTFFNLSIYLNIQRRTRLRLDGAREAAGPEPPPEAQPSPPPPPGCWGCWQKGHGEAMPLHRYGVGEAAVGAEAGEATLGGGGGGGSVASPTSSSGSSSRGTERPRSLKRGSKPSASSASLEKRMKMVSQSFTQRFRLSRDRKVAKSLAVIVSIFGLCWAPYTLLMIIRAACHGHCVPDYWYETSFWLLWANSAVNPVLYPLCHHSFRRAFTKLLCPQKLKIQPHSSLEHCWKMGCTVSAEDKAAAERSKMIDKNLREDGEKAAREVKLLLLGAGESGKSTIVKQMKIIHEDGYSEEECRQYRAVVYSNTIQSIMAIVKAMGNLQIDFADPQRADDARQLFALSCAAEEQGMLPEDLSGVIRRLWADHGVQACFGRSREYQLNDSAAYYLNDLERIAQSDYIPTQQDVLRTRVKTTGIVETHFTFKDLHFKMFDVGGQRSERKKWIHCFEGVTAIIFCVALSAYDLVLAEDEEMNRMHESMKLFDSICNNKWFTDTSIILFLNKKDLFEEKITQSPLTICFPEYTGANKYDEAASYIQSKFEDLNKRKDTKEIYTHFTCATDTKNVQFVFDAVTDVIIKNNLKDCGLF

**Q.** `O=C(c1cc(C(F)(F)F)ccc1Cl)N1CCc2cnc(N3CCN(C4CCC4)CC3)nc2CC1` [Compound 438, 7-[2-chloro-5-(trifluoromethyl)benzoyl]-2-(4-cyclobutylpiperazin-1-yl)-6,7,8,9-tetrahydro-5H-pyrimido[4,5-d]azepine] was tested. Which inhibition at 4 µM did it give?
**A.** ≥ 90%

**Q.** How did the inhibition at 4 µM turn out when `O=C(c1ccncc1)N1CCc2cnc(N3CCN(C4CCC4)CC3)nc2CC1` [Compound 487, 2-(4-cyclobutylpiperazin-1-yl)-7-isonicotinoyl-6,7,8,9-tetrahydro-5H-pyrimido[4,5-d]azepine] was run?
**A.** ≥ 90%

**Q.** `CCOc1ncccc1C(=O)N1CCc2cnc(N3CCN(C4CCC4)CC3)nc2CC1` [Compound 543, 2-(4-cyclobutylpiperazin-1-yl)-7-[(2-ethoxypyridin-3-yl)carbonyl]-6,7,8,9-tetrahydro-5H-pyrimido[4,5-d]azepine] was tested. Which inhibition at 4 µM did it give?
**A.** ≥ 90%

**Q.** How did the inhibition at 4 µM turn out when `CCCn1c(C(=O)N2CCc3cnc(N4CCN(C5CCC5)CC4)nc3CC2)cc2ccccc21` [Compound 463, 2-(4-cyclobutylpiperazin-1-yl)-7-[(1-propyl-1H-indol-2-yl)carbonyl]-6,7,8,9-tetrahydro-5H-pyrimido[4,5-d]azepine] was run?
**A.** ≥ 90%

**Q.** With `Cc1ccc(Oc2ncccc2C(=O)N2CCc3cnc(N4CCN(C5CCC5)CC4)nc3CC2)c(C)c1` [Compound 503, 2-(4-cyclobutylpiperazin-1-yl)-7-{[2-(2,4-dimethylphenoxy)pyridin-3-yl]carbonyl}-6,7,8,9-tetrahydro-5H-pyrimido[4,5-d]azepine] as the molecule, how does the inhibition at 4 µM read?
**A.** ≥ 90%

**Q.** With `CCn1c(C(=O)N2CCc3cnc(N4CCN(C5CCC5)CC4)nc3CC2)cc2ccccc21` [Compound 462, 2-(4-cyclobutylpiperazin-1-yl)-7-[(1-ethyl-1H-indol-2-yl)carbonyl]-6,7,8,9-tetrahydro-5H-pyrimido[4,5-d]azepine] as the molecule, how does the inhibition at 4 µM read?
**A.** ≥ 90%

**Q.** Which inhibition at 4 µM does the source give for `COc1ccc(Br)c(C(=O)N2CCc3cnc(N4CCN(C5CCC5)CC4)nc3CC2)c1` [Compound 413, 7-(2-bromo-5-methoxybenzoyl)-2-(4-cyclobutylpiperazin-1-yl)-6,7,8,9-tetrahydro-5H-pyrimido[4,5-d]azepine] here?
**A.** ≥ 90%

same assay, conditions: 1 h; assay of Example 8; symbol "!" in column headed Ki; read-out: percent inhibition of agonist-induced GTP-gammaS binding to H3

**Q.** With `O=C(Cc1ccccc1C(F)(F)F)N1CCc2cnc(N3CCN(C4CCC4)CC3)nc2CC1` [Compound 295, 2-(4-cyclobutylpiperazin-1-yl)-7-{[2-(trifluoromethyl)phenyl]acetyl}-6,7,8,9-tetrahydro-5H-pyrimido[4,5-d]azepine] as the molecule, how does the inhibition at 4 µM read?
**A.** ≥ 90%

**Q.** `Cc1cccc(C(=O)N2CCc3cnc(N4CCN(C5CCC5)CC4)nc3CC2)c1` [Compound 187, 2-(4-cyclobutylpiperazin-1-yl)-7-(3-methylbenzoyl)-6,7,8,9-tetrahydro-5H-pyrimido[4,5-d]azepine] was tested. Which inhibition at 4 µM did it give?
**A.** ≥ 90%

**Q.** How did the inhibition at 4 µM turn out when `c1ccc2ncc(CN3CCc4cnc(N5CCN(C6CCC6)CC5)nc4CC3)cc2c1` [Compound 237, 2-(4-cyclobutylpiperazin-1-yl)-7-(quinolin-3-ylmethyl)-6,7,8,9-tetrahydro-5H-pyrimido[4,5-d]azepine] was run?
**A.** ≥ 90%

same assay, conditions: symbol ! in Ki; test compound 4 μM, 1 μM histamine; read-out: percent inhibition of agonist-induced GTP-gammaS binding to H3

**Q.** Which inhibition at 4 µM does the source give for `Cc1cc(CN2CCc3c(ncnc3N3CCN(C4CCC4)CC3)C2)n(C)n1` [Compound 77] here?
**A.** ≥ 90%

**Q.** For `O=C(C1CCCO1)N1CCc2c(ncnc2N2CCN(C3CCC3)CC2)C1` (centres unmarked) [Compound 57, 4-(4-cyclobutylpiperazin-1-yl)-7-(tetrahydrofuran-2-ylcarbonyl)-5,6,7,8-tetrahydropyrido[3,4-d]pyrimidine], which inhibition at 4 µM is on record?
**A.** ≥ 90%

**Q.** How did the inhibition at 4 µM turn out when `COc1ccc(OC)c(CN2CCc3c(ncnc3N3CCN(C4CCC4)CC3)C2)c1` [Compound 95, 4-(4-cyclobutylpiperazin-1-yl)-7-(2,5-dimethoxybenzyl)-5,6,7,8-tetrahydropyrido[3,4-d]pyrimidine] was run?
**A.** ≥ 90%

**Q.** For `O=C(Cc1ccccc1)N1CCc2c(ncnc2N2CCN(C3CCC3)CC2)C1` [Compound 50, 4-(4-cyclobutylpiperazin-1-yl)-7-(phenylacetyl)-5,6,7,8-tetrahydropyrido[3,4-d]pyrimidine], which inhibition at 4 µM is on record?
**A.** ≥ 90%
